Experimental data as given in the NIST ThermoML archive (doi:10.1016/j.fluid.2010.06.017).
Numbers after ± are expanded uncertainties.

Assay: wn = mass fraction of the nth substance listed
Conditions: 373.15 K; 34470 kPa; Liquid; Vibrating tube method; w1 = 0.4623

mass density: 1399 ± 17 kg/m3
SMILES: FC(F)(F)C1(F)C(F)(F)C(F)(F)C(F)(F)C(F)(C(F)(F)F)C1(F)F (stereo unspecified) + C
